Molecules are shown by their SMILES.

From ChEMBL document CHEMBL4680251, “Discovery of a 2-pyridinyl urea-containing compound YD57 as a potent inhibitor of apoptosis signal-regulating kinase 1 (ASK1)” (Eur J Med Chem, 2020) come the findings set out here.

Experiment [1] concerns HepG2. The experiment can be described thus: Induction of cell cycle arrest in human HepG2 cells assessed as accumulation at G0/G1 phase at 0.5 uM incubated for 24 hrs by propidium iodide staining based flow cytometry (reference value: 38.34%). In kind it is functional.
Experiment [2] relates to HepG2. The experiment can be described thus: Induction of cell cycle arrest in human HepG2 cells assessed as accumulation at S phase at 16 uM incubated for 24 hrs by propidium iodide staining based flow cytometry (reference value: 33.27%). In kind it is functional.
Experiment [3] addresses T1, Mitogen-activated protein kinase kinase kinase 7 (Homo sapiens, UniProt O43318).
T1 sequence (O43318 whole entry): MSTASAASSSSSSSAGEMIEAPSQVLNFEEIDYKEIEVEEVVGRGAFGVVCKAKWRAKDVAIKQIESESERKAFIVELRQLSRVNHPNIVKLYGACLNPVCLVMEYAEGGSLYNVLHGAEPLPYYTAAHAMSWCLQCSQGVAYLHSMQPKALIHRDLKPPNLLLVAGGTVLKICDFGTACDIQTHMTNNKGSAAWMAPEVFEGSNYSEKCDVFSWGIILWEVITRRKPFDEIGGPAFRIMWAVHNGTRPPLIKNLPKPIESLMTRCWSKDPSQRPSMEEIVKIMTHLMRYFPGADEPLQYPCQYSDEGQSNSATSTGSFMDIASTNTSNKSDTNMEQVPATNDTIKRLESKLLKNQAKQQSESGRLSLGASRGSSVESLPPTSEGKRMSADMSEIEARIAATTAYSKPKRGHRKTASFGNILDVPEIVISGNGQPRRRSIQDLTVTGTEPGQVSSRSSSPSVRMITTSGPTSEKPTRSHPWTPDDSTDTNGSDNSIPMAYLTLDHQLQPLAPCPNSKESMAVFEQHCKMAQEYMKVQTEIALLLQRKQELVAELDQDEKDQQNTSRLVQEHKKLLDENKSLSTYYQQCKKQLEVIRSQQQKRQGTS
The experiment can be described thus: Inhibition of TAK1 (unknown origin).

Experiment [4] has as its target CDK3/Cyclin E (Homo sapiens, UniProt Q00526). The experiment can be described thus: Inhibition of full length human recombinant CDK3/Cyclin E using histone H1 as substrate incubated for 40 mins in presence of [gamma-33ATP] by radiometric scintillation counting analysis. In kind it is protein-complex assay.
The target of experiment [5] is Non-receptor tyrosine-protein kinase TYK2 (Homo sapiens, UniProt P29597). The experiment can be described thus: Inhibition of human recombinant TYK2 (875 to end residues) using GGMEDIYFEFMGG as substrate incubated for 40 mins in presence of [gamma-33ATP] by radiometric scintillation counting analysis.
Sequence of Non-receptor tyrosine-protein kinase TYK2 (P29597 whole entry): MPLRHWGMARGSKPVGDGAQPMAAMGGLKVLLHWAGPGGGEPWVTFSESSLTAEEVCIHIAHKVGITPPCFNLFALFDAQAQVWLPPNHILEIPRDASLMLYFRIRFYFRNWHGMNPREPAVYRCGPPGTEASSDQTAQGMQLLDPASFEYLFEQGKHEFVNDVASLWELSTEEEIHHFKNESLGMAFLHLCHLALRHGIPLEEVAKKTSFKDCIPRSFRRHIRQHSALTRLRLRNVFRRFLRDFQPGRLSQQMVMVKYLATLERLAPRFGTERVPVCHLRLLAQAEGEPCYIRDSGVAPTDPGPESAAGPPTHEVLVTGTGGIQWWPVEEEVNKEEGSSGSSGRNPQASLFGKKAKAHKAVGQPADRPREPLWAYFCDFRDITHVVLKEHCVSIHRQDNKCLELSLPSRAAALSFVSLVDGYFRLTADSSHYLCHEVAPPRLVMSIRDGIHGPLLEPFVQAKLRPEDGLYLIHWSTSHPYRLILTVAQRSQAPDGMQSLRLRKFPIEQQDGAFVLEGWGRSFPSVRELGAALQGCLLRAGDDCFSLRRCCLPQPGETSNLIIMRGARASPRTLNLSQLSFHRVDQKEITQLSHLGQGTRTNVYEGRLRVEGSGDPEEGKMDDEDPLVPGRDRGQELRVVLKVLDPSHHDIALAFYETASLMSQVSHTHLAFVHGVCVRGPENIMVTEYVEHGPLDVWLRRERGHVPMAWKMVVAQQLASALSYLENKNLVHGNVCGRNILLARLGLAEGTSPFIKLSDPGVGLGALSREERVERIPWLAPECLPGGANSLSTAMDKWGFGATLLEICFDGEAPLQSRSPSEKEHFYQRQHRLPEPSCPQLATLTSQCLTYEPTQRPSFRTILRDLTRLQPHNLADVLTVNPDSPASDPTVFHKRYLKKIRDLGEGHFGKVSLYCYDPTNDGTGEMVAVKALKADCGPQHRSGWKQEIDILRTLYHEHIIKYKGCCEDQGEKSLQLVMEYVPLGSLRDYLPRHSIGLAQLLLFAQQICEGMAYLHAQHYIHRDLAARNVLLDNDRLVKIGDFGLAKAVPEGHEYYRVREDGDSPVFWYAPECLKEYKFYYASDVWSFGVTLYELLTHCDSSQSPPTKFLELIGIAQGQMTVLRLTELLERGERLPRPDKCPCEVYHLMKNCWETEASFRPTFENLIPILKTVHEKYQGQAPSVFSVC
The subject of experiment [6] is HepG2. The experiment can be described thus: Induction of cell cycle arrest in human HepG2 cells assessed as accumulation at G2/M phase at 16 uM incubated for 24 hrs by propidium iodide staining based flow cytometry (reference value: 33.49%). It is filed as functional. For orientation: In flow cytometry, cells or beads pass a laser one at a time.
The target of experiment [7] is T2, Mitogen-activated protein kinase kinase kinase 6 (Homo sapiens, UniProt O95382).
T2 sequence (O95382 whole entry): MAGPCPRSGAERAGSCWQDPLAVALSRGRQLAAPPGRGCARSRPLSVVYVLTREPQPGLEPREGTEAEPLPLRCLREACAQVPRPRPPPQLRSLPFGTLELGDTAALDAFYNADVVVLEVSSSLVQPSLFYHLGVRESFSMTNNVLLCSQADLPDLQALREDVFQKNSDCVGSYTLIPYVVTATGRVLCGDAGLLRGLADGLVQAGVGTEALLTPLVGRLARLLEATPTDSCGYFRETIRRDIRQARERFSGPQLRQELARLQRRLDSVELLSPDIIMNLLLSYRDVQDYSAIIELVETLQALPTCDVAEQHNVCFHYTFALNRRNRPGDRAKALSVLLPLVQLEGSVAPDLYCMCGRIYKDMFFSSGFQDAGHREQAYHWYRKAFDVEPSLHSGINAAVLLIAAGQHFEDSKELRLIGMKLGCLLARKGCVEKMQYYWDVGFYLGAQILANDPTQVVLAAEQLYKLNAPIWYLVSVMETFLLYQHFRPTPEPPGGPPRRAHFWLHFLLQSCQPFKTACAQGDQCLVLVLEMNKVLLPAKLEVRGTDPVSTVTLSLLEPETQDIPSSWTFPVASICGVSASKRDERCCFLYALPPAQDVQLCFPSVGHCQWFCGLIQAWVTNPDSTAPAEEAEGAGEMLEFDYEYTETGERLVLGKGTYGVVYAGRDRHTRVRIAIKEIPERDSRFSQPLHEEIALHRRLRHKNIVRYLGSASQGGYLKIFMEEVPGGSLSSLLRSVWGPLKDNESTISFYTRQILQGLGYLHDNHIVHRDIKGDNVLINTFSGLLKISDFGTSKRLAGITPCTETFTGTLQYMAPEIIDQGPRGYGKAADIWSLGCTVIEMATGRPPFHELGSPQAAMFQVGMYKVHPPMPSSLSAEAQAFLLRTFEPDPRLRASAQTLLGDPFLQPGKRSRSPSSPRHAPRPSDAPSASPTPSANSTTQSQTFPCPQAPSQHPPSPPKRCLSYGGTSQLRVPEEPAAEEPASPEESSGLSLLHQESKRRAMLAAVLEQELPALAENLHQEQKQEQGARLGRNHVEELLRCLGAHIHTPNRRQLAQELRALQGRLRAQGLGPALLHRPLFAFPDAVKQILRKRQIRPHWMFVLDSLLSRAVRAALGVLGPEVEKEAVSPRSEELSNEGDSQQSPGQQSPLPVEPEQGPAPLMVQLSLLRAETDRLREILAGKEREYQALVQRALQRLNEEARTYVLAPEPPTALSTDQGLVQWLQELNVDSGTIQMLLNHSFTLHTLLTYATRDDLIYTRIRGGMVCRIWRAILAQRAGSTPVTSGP
The experiment can be described thus: Inhibition of ASK2 (unknown origin).

Sequence of CDK3/Cyclin E (P24864 whole entry): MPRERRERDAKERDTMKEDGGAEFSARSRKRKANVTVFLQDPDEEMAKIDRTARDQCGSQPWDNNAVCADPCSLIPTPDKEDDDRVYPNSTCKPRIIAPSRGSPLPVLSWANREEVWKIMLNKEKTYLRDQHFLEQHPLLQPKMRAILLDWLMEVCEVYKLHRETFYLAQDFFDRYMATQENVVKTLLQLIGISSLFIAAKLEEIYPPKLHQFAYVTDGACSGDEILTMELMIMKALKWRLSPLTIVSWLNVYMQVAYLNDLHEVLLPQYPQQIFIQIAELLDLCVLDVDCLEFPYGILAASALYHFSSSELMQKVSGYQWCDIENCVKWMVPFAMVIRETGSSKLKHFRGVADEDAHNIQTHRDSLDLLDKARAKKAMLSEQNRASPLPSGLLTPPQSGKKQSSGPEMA
Sequence of CDK3/Cyclin E (Q00526 whole entry): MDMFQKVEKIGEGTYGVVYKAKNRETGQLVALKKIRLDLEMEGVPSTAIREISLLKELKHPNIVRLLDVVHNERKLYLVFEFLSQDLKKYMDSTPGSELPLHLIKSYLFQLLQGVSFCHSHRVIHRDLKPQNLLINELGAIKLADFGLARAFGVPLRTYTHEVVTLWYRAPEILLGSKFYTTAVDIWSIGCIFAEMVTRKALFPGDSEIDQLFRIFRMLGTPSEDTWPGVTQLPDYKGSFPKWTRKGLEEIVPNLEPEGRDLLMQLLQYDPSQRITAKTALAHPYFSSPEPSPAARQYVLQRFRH

As to `C[C@H](CO)n1cnnc1-c1cccc(NC(=O)Nc2cc3ccccn3n2)n1`, the values for the Activity in experiment [1], in experiment [2] and in experiment [6] were 46.22%, 9.63% and 32.64%, respectively. Further, the IC50 in experiment [3] worked out at 4.98 µM; in experiment [4] it was 0.117 µM; in experiment [5], 1.69 µM; in experiment [7] it was 5.29 µM.

Usually IC50 stands for the point on the concentration scale where inhibition reaches its midpoint.
